Data taken from ChEMBL document CHEMBL1201862, “PubChem BioAssay data set” (2004).
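Briefly, cells in 96-well plates were exposed to five compound concentrations for 48 h, and endpoints were estimated by linear interpolation. GI50 marks 50% less growth.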 Activity calls are given as the source filed them. No stated cut-off is given here; in the data, active = GI50 up to about 1.1 µM and inactive = higher.

Legend:
Test in all cases: NCI anticancer screen, dose series, 48 h
[1] = system: MOLT-4
[2] = system: Hs-578T
[3] = system: TK-10
[4] = system: COLO 205
[5] = system: 786-0
[6] = system: U-251
[7] = system: NCI-H226
[8] = system: MDA-MB-231
[9] = system: NCI/ADR-RES
[10] = system: HOP-92
[11] = system: NCI-H522
[12] = system: UACC-62
[13] = system: UO-31
[14] = system: OVCAR-5
[15] = system: IGROV-1
[16] = system: LOX IMVI
[17] = system: A549
[18] = system: Malme-3M
[19] = system: OVCAR-4
[20] = system: KM12

Compound	GI50 [1]	GI50 [2]	GI50 [3]	GI50 [4]	GI50 [5]	GI50 [6]	GI50 [7]	GI50 [8]	GI50 [9]	GI50 [10]	GI50 [11]	GI50 [12]	GI50 [13]	GI50 [14]	GI50 [15]	GI50 [16]	GI50 [17]	GI50 [18]	GI50 [19]	GI50 [20]
CN1CN(c2ccccc2)C2(CCNCC2)C1=O	> 100 µM (inactive)	> 100 µM (inactive)	> 100 µM (inactive)	> 100 µM (inactive)	> 100 µM (inactive)	> 100 µM (inactive)	> 100 µM (inactive)	> 100 µM (inactive)	> 100 µM (inactive)	> 100 µM (inactive)	> 100 µM (inactive)	> 100 µM (inactive)	> 100 µM (inactive)	> 100 µM (inactive)	> 100 µM (inactive)	> 100 µM (inactive)	> 100 µM (inactive)	> 100 µM (inactive)	> 100 µM (inactive)	> 100 µM (inactive)
NC(=S)N/N=C/c1ncccc1N [TRIAPINE]	0.438 µM (active)	> 10 µM (inactive)	> 10 µM (inactive)	2.23 µM (inactive)	0.314 µM (active)	1.04 µM (active)	2.75 µM (inactive)	5.28 µM (inactive)	2.04 µM (inactive)	0.553 µM (active)	2.03 µM (inactive)	0.546 µM (active)	0.37 µM (active)	5.08 µM (inactive)	> 10 µM (inactive)	0.679 µM (active)	2.02 µM (inactive)	1.87 µM (inactive)	7.48 µM (inactive)	4.59 µM (inactive)
